# Measurements: patent US20230293542A1, “SENSORY STIMULATING PSYCHOTROPIC DRUG” (KANSAI MEDICAL UNIVERSITY, priority 2020, published 2023)
# Test system: C57/BL6 mice
# Assay: Contextual fear conditioning in the presence of thiazoline-related fear odor (inhibition of fear memory formation), freezing behavior
# Type: in vivo
# Conditions: filter paper impregnated with 100 μl or 10 μl of 2MT during fear conditioning; freezing measured for 10 min on day 3 with Eugenol; compared to group that learned with no odor; FIG. 1
# Protocol: • Day 0: About 2-month-old C57/BL6 mice were placed in an electric shock chamber, and 2-second electric shock (0.6 mA) was given 6 times at 2-minute intervals for 12 min for contextual fear conditioning. Conditioning was performed under 4 conditions of no odor condition (control; n=6) (group 1) and an electric shock chamber with filter paper impregnated with 100 μl of 2-methyl-2-thiazoline (2MT) condition (2MT; n=6) (group 2), or no odor condition (control; n=6) (group 3) and an electric shock chamber with filter paper impregnated with 10 μl of 2-methyl-2-thiazoline (2MT) condition (2MT; n=6) (group 4). • Day 1: Mice were placed in the electric shock chamber (no odor) used for learning on the previous day, and freezing behavior was measured for 10 min using dedicated software (Freeze frame 2; ActiMetrics). • Day 3: The mice of group 1 and group 2 were placed in an electric shock chamber with filter paper impregnated with 100 μl of Eugenol, and freezing behavior was measured for 10 min. The mice in group 3 and group 4 were placed in an electric shock chamber with filter paper impregnated with 10 μl of Eugenol, and freezing behavior was measured for 10 min.
# A student's t-test was also performed between the group with no odor and the group with 2MT (**p<0.01, ***p<0.001).
row,SMILES,freezing behavior in the context with odor (eugenol odor context; day 3)
1,CC1=NCCS1 [2-methyl-2-thiazoline],marked decrease

# Same assay, conditions: filter paper impregnated with 100 μl or 10 μl of 2MT in electric shock chamber during fear conditioning; freezing measured for 10 min on day 1; compared to no odor group; FIG. 1
row,SMILES,freezing behavior in the no odor context (day 1)
1,CC1=NCCS1 [2-methyl-2-thiazoline],remarkably decreased

# Test system: C57/BL6 mice
# Assay: Contextual fear conditioning 30 min after intraperitoneal administration (inhibition of fear memory formation), freezing behavior
# Type: in vivo
# Conditions: intraperitoneal 200 μl of 1 v/v % solution in saline, 30 min before conditioning; freezing for 10 min on day 1, no odor; compared with saline-administered group (=100%); n=6; FIG. 2-12
# Protocol: • Day 0: To about 2 month-old C57/BL6 mice was intraperitoneally administered 200 μl of saline, or 1 v/v % 2-methyl-2-thiazoline solution (dissolved in saline), or 1 v/v % 5-methylthiazole solution (dissolved in saline), or 1 v/v % 4-ethyl-2-methyl-2-thiazoline solution (dissolved in saline), or 1 v/v % 2,4,5-trimethyl-3-thiazoline solution (dissolved in saline), or 1 v/v % thiomorpholine solution (dissolved in saline), or 1 v/v % allyl isothiocyanate (AITC) solution (dissolved in saline), or 1 v/v % 2,3-diethylpyrazine solution (dissolved in saline), or 1 v/v % 2,6-lutidine solution (dissolved in saline) (each condition n=6). Thirty minutes after the administration, the mice were placed in an electric shock chamber, and 2-second electric shock (0.6 mA) was given 6 times at 2-minute intervals for 12 min for contextual fear conditioning. • Day 1: Mice were placed in the electric shock chamber (no odor) used for learning on the previous day, and freezing behavior was measured for 10 min using dedicated software (Freeze frame 2).
# In addition, a student's t-test was performed between the saline-administered group and each compound-administered group (*p<0.05, ***p<0.001).
# (§1) • Day 0: To about 2 month-old C57/BL6 mice was intraperitoneally administered 200 μl of saline or 1 v/v % 2-(allylthio)-2-thiazoline solution (dissolved in saline) (each condition n=6). Thirty minutes after the administration, the mice were placed in an electric shock chamber, and 2-second electric shock (0.6 mA) was given 6 times at 2-minute intervals for 12 min for contextual fear conditioning. • Day 1: Mice were placed in the electric shock chamber (no odor) used for learning on the previous day, and freezing behavior was measured for 10 min using dedicated software (Freeze frame 2).
# A student's t-test was performed between the saline-administered group and the 2-(allylthio)-2-thiazoline-administered group (*p<0.05).
# as §1, with “4-tert-butyl-2-methylthiazole” for “2-(allylthio)-2-thiazoline”
# as §1, with “2-ethoxythiazole” for “2-(allylthio)-2-thiazoline”
# as §1, with “2-methylbenzothiazole” for “2-(allylthio)-2-thiazoline”
# • Day 0: To about 2 month-old 057/BL6 mice was intraperitoneally administered 200 μl of saline or 1 v/v % 2-mercaptothiazole solution (dissolved in saline) (each condition n=6). […]
row,SMILES,frequency of freezing behavior during the test (day 1)
1,"CCc1nccnc1CC [2,3-diethylpyrazine]",significant decrease
2,"CC1=NC(C)SC1C (centres unmarked) [2,4,5-trimethyl-3-thiazoline]",significant decrease
3,"Cc1cccc(C)n1 [2,6-lutidine]",significant decrease
4,C=CCSC1=NCCS1 [2-(allylthio)-2-thiazoline],significant decrease
5,CC(=O)c1ccc[nH]1 [2-acetylpyrrole],significant decrease
6,NC1=NCCS1 [2-amino-2-thiazoline],significant decrease
7,CCOc1nccs1 [2-ethoxythiazole],significant decrease
8,Sc1nccs1 [2-mercaptothiazole],significant decrease
9,CC1=NCCS1 [2-methyl-2-thiazoline],significant decrease
10,Cc1nc2ccccc2s1 [2-methylbenzothiazole],significant decrease
11,Cc1nccs1 [2-methylthiazole],significant decrease
12,CC1CNCCS1 (centres unmarked) [2-methylthiomorpholine],significant decrease
13,CCC1CSC(C)=N1 (centres unmarked) [4-ethyl-2-methyl-2-thiazoline],significant decrease
14,Cc1nc(C(C)(C)C)cs1 [4-tert-butyl-2-methylthiazole],significant decrease
15,Cc1cncs1 [5-methylthiazole],significant decrease
16,"C=CCN=C=S [AITC, allyl isothiocyanate]",significant decrease
17,C=C(C)CN=C=S [methallyl isothiocyanate],significant decrease
18,C1CSCCN1 [thiomorpholine],significant decrease
